By IC50 is commonly meant the concentration that gives 50% inhibition. As a reminder, the Ki is the dissociation constant of the complex between target and ligand, obtained from inhibition or displacement.

Activity calls are given as the source filed them. A value given as a limit tells only on which side of the number the result lay.

Holding throughout (assay type): functional
Test [1] in a line: Counterscreen for antagonists of the orexin 1 receptor (OX1R; HCRTR1): Fluorescence-based cell-based high throughput dose response assay to identify antagonists of the parental CHO cell line. [Related pubchem assays (depositor defined):AID434989, AID435008, AID463079, AID485270, AID492963, AID492964, AID492965, AID493232, AID504699, AID504701]. A general note: The purpose of a counterscreen is to sort out artefacts and off-target activity.

Test [2] concerns the target T1, Sentrin-specific protease 6 (Homo sapiens, UniProt Q9GZR1).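 Further: Luminescence-based dose-response confirmatory assay of SENP6 inhibition, following up an ultra-high-throughput screen.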
T1 sequence (Q9GZR1 whole entry): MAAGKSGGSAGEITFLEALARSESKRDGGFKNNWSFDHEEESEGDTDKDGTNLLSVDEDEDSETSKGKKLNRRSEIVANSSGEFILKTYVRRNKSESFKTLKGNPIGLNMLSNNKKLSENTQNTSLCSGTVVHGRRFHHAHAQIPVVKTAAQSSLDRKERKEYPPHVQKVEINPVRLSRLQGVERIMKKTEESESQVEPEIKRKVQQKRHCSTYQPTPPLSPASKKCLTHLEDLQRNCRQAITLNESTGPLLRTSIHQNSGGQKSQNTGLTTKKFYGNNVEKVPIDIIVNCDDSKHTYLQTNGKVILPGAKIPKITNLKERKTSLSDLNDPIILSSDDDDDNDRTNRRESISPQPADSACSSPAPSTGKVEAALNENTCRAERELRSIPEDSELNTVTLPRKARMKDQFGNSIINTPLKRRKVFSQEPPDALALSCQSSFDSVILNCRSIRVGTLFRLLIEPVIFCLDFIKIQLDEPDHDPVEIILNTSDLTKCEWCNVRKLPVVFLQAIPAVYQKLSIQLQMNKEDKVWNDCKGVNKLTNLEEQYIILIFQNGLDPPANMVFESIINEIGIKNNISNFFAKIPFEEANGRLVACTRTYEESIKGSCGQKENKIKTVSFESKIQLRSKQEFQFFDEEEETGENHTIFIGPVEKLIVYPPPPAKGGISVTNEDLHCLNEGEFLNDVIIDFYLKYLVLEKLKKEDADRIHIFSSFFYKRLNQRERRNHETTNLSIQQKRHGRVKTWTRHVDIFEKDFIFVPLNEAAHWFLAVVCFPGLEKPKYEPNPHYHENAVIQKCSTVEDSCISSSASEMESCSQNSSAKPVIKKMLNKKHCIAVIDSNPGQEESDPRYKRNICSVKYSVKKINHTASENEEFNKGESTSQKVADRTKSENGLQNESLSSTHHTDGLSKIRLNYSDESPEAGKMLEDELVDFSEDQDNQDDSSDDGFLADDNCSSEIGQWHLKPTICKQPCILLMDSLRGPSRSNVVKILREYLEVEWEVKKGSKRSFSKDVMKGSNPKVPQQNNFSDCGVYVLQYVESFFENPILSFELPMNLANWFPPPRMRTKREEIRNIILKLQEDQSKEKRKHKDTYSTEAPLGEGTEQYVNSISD

In test [3] the target is T2, Orexin receptor type 2 (Homo sapiens, UniProt O43614).
T2 sequence (O43614 whole entry): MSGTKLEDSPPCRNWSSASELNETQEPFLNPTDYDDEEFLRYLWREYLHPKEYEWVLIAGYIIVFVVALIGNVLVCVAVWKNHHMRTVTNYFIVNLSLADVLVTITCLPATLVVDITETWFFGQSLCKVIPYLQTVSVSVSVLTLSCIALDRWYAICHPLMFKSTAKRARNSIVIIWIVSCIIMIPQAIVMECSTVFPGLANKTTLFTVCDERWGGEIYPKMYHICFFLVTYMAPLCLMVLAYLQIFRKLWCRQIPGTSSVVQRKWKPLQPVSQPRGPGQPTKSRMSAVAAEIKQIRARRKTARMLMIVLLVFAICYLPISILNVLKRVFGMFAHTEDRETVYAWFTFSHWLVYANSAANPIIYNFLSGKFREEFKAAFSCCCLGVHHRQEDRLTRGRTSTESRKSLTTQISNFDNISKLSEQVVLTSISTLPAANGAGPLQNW
Briefly: Counterscreen assay for antagonists of the orexin 1 receptor (OX1R; HCRTR1): Fluorescence-based cell-based dose response assay for antagonists of the orexin 2 receptor (OX2R; HCRTR2), run by assay provider.

The target of test [4] is Protein kinase C theta type (Homo sapiens, UniProt Q04759). Kind of test: Navigating the Kinome. Panel member name: PRKCQ.
Test [5] concerns the target Ribosomal protein S6 kinase alpha-3 (Homo sapiens, UniProt P51812).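 Further: measured within a kinome-wide profiling panel.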
The target of test [6] is ALK tyrosine kinase receptor (Homo sapiens, UniProt Q9UM73).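 Further: ALK tested as one member of a kinase panel screen.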
Test [7] has as its target Tyrosine-protein kinase receptor TYRO3 (Homo sapiens, UniProt Q06418).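 Further: TYRO3 value obtained as one member of a kinome-wide profiling panel.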
Test [8] has as its target Death-associated protein kinase 3 (Homo sapiens, UniProt O43293).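 Further: measured as one member of a kinome-wide profiling panel.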
The target in test [9] is Tyrosine-protein kinase BTK (Homo sapiens, UniProt Q06187).
Chain of Tyrosine-protein kinase BTK (Q06187 whole entry): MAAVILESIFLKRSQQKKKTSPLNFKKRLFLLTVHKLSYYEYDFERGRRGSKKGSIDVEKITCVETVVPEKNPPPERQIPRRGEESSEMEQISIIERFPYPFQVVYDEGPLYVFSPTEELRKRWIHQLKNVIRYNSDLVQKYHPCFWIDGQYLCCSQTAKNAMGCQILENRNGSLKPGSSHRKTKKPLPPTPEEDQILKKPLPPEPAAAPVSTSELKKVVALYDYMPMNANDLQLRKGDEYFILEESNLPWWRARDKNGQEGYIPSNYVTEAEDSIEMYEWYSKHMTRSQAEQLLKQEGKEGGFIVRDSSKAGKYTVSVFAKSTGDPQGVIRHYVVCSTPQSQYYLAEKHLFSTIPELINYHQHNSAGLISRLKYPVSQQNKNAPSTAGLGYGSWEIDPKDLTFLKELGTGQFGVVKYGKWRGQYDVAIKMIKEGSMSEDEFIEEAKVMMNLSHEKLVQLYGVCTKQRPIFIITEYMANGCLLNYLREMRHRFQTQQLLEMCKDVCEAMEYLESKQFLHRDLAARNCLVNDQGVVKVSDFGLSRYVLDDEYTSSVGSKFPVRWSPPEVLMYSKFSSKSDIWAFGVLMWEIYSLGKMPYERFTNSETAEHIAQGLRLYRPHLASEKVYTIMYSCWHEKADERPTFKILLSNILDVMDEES
The target in test [10] is Serine/threonine-protein kinase PAK 4 (Homo sapiens, UniProt O96013).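 Further: value obtained within a kinome profiling panel in which PAK4 was one of the panel members.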
Chain of Serine/threonine-protein kinase PAK 4 (O96013 whole entry): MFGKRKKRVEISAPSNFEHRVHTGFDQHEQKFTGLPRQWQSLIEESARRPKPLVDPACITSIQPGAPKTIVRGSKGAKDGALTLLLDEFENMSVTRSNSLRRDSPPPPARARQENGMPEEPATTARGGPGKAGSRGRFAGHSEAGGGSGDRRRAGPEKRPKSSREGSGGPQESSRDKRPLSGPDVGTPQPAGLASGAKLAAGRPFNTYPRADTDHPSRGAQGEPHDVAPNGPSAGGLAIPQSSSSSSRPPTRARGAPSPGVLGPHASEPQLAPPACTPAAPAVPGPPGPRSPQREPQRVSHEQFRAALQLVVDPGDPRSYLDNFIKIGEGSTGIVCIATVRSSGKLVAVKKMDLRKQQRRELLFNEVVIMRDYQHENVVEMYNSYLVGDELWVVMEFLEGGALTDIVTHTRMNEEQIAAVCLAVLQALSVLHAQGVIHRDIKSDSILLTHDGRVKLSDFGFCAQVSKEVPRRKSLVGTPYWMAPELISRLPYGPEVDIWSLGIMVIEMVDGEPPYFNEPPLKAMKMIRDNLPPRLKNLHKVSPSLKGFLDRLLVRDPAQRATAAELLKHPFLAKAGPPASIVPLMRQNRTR
In test [11] the target is Serine/threonine-protein kinase TAO1 (Homo sapiens, UniProt Q7L7X3).
Chain of Serine/threonine-protein kinase TAO1 (Q7L7X3 whole entry): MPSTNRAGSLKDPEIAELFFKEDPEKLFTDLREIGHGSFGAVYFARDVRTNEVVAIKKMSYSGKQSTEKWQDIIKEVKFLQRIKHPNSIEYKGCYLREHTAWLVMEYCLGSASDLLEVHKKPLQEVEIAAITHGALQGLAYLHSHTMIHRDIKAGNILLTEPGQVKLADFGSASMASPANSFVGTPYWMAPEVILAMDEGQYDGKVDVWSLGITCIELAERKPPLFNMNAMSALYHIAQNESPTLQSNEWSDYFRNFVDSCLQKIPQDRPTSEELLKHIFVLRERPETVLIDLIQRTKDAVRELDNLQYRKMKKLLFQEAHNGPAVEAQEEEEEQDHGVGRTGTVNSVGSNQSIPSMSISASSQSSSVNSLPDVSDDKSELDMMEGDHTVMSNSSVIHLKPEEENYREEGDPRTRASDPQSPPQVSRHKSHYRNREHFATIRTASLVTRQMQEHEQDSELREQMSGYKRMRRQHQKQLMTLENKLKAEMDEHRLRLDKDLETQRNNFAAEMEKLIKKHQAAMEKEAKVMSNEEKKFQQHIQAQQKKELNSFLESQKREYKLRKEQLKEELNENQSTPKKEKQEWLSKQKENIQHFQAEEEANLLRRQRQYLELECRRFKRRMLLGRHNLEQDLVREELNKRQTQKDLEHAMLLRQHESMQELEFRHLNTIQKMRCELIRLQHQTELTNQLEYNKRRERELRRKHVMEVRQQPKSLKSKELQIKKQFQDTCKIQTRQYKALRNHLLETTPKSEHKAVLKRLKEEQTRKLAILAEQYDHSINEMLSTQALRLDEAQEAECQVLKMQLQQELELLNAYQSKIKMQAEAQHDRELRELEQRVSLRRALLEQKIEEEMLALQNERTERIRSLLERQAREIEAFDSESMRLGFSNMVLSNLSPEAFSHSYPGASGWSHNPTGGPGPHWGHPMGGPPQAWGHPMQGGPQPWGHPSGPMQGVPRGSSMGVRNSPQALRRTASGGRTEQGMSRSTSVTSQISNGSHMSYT
Test [12] concerns the target High affinity nerve growth factor receptor (Homo sapiens, UniProt P04629).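 Further: NTRK1 tested as one member of a kinome-wide profiling panel.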
The target in test [13] is Serine/threonine-protein kinase Chk1 (Homo sapiens, UniProt O14757).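 Further: measured as one member of a kinome-wide kinase profiling panel.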
Chain of Serine/threonine-protein kinase Chk1 (O14757 whole entry): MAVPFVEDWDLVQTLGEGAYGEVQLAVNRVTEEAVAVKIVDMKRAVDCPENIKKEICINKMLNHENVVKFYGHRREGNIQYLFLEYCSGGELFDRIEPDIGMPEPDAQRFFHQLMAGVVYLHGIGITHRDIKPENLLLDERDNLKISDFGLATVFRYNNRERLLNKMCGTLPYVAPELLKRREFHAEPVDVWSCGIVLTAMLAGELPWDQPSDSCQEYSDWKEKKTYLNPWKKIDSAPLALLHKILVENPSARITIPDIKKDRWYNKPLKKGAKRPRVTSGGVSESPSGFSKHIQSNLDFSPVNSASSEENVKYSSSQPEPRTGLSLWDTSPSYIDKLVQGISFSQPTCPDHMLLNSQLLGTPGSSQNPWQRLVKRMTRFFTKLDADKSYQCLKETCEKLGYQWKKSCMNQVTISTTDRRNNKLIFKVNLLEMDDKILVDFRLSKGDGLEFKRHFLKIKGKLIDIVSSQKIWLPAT
Test [14] concerns the target Tyrosine-protein kinase ABL1 (Homo sapiens, UniProt P00519).
For test [15], the target named is Vascular endothelial growth factor receptor 2 (Homo sapiens, UniProt P35968).
Test [16] has as its target G protein-coupled receptor kinase 5 (Homo sapiens, UniProt P34947). Briefly: Navigating the Kinome. Panel member name: GPRK5.
For test [17], the target named is Insulin-like growth factor 1 receptor (Homo sapiens, UniProt P08069). Kind of test: Navigating the Kinome. Panel member name: IGF1R.
Test [18] has as its target Dual specificity tyrosine-phosphorylation-regulated kinase 1B (Homo sapiens, UniProt Q9Y463). Kind of test: Navigating the Kinome. Panel member name: DYRK1B.
Test [19] concerns the target cAMP-dependent protein kinase catalytic subunit PRKX (Homo sapiens, UniProt P51817).
Test [20] deals with cAMP-dependent protein kinase catalytic subunit alpha (Homo sapiens, UniProt P17612).
Test [21] addresses Dual specificity protein kinase CLK4 (Homo sapiens, UniProt Q9HAZ1).
The target of test [22] is Calcium/calmodulin-dependent protein kinase type II subunit alpha (Homo sapiens, UniProt Q9UQM7). Kind of test: Navigating the Kinome. Panel member name: CAMK2A.

Chain of Death-associated protein kinase 3 (O43293 whole entry): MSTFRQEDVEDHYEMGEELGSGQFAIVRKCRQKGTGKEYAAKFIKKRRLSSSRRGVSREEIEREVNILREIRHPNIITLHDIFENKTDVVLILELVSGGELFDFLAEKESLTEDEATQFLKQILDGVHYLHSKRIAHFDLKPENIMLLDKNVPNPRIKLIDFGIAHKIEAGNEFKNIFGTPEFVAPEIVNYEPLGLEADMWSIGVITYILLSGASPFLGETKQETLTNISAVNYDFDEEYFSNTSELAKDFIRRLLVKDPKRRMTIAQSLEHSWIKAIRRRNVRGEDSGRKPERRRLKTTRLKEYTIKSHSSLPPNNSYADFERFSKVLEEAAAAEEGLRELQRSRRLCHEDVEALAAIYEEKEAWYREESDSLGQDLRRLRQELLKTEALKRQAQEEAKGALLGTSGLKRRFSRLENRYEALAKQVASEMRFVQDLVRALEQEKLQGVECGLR
Chain of Dual specificity protein kinase CLK4 (Q9HAZ1 whole entry): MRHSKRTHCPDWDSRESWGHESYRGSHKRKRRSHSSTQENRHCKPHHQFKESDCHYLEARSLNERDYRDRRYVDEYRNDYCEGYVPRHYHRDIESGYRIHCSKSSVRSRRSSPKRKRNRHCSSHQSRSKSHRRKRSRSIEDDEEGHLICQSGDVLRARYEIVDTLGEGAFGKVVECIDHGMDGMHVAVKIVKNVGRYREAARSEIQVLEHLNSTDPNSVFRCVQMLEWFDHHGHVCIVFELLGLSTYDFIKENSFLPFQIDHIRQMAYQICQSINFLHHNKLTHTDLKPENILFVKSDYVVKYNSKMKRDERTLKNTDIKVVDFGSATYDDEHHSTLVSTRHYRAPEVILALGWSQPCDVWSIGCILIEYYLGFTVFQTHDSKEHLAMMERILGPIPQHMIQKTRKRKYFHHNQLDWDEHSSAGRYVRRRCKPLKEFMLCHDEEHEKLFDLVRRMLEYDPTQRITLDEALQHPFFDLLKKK
Chain of Tyrosine-protein kinase ABL1 (P00519 whole entry): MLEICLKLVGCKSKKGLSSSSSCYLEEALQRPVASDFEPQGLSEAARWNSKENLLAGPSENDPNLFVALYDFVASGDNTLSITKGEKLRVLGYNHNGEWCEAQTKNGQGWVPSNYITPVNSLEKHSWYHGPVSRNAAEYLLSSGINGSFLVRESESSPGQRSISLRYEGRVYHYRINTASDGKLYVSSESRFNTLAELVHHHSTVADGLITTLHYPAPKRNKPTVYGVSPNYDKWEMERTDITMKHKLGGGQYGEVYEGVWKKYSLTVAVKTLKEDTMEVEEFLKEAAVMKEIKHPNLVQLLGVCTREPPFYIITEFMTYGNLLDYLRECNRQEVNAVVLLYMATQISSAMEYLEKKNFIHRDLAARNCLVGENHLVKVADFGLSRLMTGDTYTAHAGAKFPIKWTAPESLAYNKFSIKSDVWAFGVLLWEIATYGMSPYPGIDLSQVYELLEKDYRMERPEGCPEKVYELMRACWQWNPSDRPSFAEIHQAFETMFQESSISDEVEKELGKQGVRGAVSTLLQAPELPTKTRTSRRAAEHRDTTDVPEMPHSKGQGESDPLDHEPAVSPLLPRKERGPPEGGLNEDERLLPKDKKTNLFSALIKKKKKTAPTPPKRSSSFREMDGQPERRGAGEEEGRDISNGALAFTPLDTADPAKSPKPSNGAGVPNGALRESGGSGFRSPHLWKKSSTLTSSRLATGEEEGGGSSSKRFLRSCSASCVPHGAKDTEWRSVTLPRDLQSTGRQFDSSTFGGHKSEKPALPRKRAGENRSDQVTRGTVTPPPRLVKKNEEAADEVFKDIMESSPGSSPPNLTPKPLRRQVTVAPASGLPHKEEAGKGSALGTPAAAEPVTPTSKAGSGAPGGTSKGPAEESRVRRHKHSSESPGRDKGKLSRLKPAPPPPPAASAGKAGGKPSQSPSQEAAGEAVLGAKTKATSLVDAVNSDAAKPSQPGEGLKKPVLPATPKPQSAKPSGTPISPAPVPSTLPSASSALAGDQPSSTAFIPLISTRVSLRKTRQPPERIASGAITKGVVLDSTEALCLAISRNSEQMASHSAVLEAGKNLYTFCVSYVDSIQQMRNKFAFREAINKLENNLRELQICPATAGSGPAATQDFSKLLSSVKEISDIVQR

With `Cc1ccnc2ccc(-c3nc4ccccc4o3)cc12`, the IC50 is > 49.8 µM (inactive) in [1], 3.65 µM (active) in test [2] and > 88.8 µM (inactive) in test [3].

On to `O=C(NCCc1cccs1)N1CC=C(c2c[nH]c3ncccc23)CC1`, for which the Ki in test [4] is > 2.51 µM (inactive); in test [5], > 3.98 µM (inactive); in test [6], > 6.31 µM (inactive); in test [7], > 3.16 µM (inactive); in test [8], 3.98 µM (active); in [9], > 6.31 µM (inactive). In addition, the Ki is > 5.01 µM (inactive) in test [10]; > 6.31 µM (inactive) in test [11]; > 3.16 µM (inactive) in [12]; 2 µM (active) in test [13]; > 2.51 µM (inactive) in [14]; 2 µM (active) in test [15]. In addition, the Ki was > 3.98 µM (inactive) in test [16]; > 2.51 µM (inactive) in [17]; 0.0398 µM (active) in test [18]; 0.158 µM (active) in test [19]; 0.0631 µM (active) in [20]; 0.0158 µM (active) in test [21]. Besides, in test [22], the Ki is 3.98 µM (active).

Values taken from ChEMBL document CHEMBL1201862, “PubChem BioAssay data set” (2004).
